Results taken from paper PMC6378277, “Mechanism Underlying Heat Stability of the Rice Endosperm Cytosolic ADP-Glucose Pyrophosphorylase” (Frontiers in Plant Science, 2019).
Residue numbers refer to the chain shown, from its start.

Key:
hybrid L2/pSS = target: T1, hybrid L2/pSS (Oryza sativa; Solanum tuberosum, UniProt P23509+Q7G065); test: AGPase activity, phosphate release (PAMb colorimetric), Hill fit; type: biochemical; conditions: allosteric activator; ATP and Glc1P, 10 mM MgCl2, pH 8.0, room temperature; enzyme reduced with 10 mM DTT; read-out: A0.5
T1 construct: hybrid heterotetramer of whole rice L2 and whole potato SS, E. coli EA345, purified
T1 sequence (P23509 73-521): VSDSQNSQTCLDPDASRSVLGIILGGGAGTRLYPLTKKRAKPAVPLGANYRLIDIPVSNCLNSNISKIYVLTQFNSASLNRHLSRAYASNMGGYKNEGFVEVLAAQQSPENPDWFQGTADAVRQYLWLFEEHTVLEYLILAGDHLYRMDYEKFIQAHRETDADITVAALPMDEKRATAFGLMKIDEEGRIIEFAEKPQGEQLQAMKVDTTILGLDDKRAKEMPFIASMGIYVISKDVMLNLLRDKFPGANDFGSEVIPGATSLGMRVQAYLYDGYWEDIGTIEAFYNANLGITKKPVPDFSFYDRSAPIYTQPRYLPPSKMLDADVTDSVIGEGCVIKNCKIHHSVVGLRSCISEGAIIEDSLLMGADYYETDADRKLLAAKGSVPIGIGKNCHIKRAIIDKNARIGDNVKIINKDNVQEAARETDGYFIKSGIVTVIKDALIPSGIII
T1 sequence (Q7G065 1-518): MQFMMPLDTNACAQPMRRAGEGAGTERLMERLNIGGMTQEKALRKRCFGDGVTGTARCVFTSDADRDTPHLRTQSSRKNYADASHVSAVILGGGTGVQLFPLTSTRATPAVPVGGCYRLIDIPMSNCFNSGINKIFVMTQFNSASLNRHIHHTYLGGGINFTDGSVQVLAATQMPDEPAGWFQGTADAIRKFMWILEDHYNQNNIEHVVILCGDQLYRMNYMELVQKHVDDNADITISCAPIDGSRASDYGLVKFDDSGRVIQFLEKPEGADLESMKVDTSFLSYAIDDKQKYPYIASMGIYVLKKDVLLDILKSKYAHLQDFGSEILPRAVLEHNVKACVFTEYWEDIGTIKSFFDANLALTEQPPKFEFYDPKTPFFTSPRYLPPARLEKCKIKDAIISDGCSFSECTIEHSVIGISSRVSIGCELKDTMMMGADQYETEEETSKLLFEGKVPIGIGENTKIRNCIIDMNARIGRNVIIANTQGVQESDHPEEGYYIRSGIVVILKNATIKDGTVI
Source text: AGPase activity, phosphate release (PAMb colorimetric), Hill fit on hybrid L2/pSS

[1] = target: T2, rice AGPase L2/S2b (wild type; parent of L2/S2b^QTC and PQ6) (Oryza sativa, UniProt B7EVB8+Q7G065, B7EVB8:N38Q/B7EVB8:K39T/B7EVB8:N40C/B7EVB8:L379F); conditions: read-out: A0.5; allosteric activator; ATP and Glc1P, 10 mM MgCl2, pH 8.0, room temperature; enzyme reduced with 10 mM DTT
T2 construct: gene AGPL2
T2 sequence (Q7G065 1-518): T1 sequence (Q7G065 1-518)
T2 sequence (B7EVB8 1-479 N38Q/K39T/N40C/L379F): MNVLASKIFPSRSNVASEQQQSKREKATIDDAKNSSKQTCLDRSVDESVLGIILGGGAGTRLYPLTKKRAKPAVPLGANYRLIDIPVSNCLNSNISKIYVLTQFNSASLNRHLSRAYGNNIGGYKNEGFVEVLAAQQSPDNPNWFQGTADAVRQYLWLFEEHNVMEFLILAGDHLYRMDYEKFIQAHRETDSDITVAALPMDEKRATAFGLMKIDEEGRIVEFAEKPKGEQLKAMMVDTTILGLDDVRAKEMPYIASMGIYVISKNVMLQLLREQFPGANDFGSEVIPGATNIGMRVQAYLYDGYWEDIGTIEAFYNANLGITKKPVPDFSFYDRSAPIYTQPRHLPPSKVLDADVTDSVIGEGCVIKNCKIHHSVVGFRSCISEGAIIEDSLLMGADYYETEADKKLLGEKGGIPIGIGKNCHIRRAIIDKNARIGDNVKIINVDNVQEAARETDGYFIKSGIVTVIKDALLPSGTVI
Source text: (§1) AGPase activity, phosphate release (PAMb colorimetric), Hill fit on rice AGPase L2/S2b (wild type; parent of L2/S2b^QTC and PQ6)

[2] = target: T3, rice AGPase L2/S2b (wild type; parent of L2/S2b^QTC and PQ6) (Oryza sativa, UniProt B7EVB8+Q7G065, B7EVB8:N38Q/B7EVB8:K39T/B7EVB8:N40C); conditions: read-out: A0.5; allosteric activator; ATP and Glc1P, 10 mM MgCl2, pH 8.0, room temperature; enzyme reduced with 10 mM DTT
T3 construct: gene AGPL2
T3 sequence (Q7G065 1-518): T1 sequence (Q7G065 1-518)
T3 sequence (B7EVB8 1-479 N38Q/K39T/N40C): T2 sequence (B7EVB8 1-479 N38Q/K39T/N40C/L379F) with F379L
Source text: as §1

[3] = target: T4, rice AGPase L2/S2b (wild type; parent of L2/S2b^QTC and PQ6) (Oryza sativa, UniProt B7EVB8+Q7G065); conditions: read-out: A0.5; allosteric activator; ADP-glucose synthesis with ATP and Glc1P, 10 mM MgCl2, pH 8.0, room temperature; enzyme reduced with 10 mM DTT
T4 construct: gene AGPL2
T4 sequence (Q7G065 1-518): T1 sequence (Q7G065 1-518)
T4 sequence (B7EVB8 1-479): T2 sequence (B7EVB8 1-479 N38Q/K39T/N40C/L379F) with Q38N, T39K, C40N, F379L
Source text: as §1

EC50 (hybrid L2/pSS): 147 ± 3 µM
Structure (SMILES): O=C(O)[C@H](O)COP(=O)(O)O [3-PGA]
EC50 [1]: 106 µM
EC50 [2]: 95 ± 2 µM
EC50 [3]: 342 ± 30 µM
